Data on 18 molecules can be found in ChEMBL document CHEMBL2424599, “Design, synthesis, docking study and biological evaluation of some novel tetrahydrochromeno [3',4':5,6]pyrano[2,3-b]quinolin-6(7H)-one derivatives against acetyl- and butyrylcholinesterase” (Eur J Med Chem, 2013).

Each structure is given as a SMILES string. pIC50, pKi: −log10 of the molar value.

One assay has as its target Cholinesterase (Equus caballus, UniProt P81908).
The target in assay [1] is T1, Acetylcholinesterase (Electrophorus electricus, UniProt O42275).
T1 sequence (O42275 whole entry): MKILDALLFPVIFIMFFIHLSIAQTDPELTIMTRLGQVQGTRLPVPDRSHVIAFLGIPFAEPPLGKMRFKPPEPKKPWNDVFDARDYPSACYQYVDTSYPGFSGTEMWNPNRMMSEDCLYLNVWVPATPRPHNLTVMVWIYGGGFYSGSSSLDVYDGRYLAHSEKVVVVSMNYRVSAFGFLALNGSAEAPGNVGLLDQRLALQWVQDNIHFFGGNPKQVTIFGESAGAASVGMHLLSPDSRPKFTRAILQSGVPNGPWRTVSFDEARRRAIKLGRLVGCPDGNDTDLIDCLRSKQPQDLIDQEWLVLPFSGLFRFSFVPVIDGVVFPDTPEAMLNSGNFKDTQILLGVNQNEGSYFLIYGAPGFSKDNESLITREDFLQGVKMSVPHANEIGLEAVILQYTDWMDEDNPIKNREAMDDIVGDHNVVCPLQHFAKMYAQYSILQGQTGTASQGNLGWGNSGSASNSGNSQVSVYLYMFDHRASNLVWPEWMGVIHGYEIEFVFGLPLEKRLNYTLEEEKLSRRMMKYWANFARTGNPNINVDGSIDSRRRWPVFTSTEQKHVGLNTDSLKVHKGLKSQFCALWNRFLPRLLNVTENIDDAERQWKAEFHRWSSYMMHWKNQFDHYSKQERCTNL
Description: Inhibition of electric eel AChE using acetylthiocholine iodide as substrate preincubated for 10 mins prior to substrate addition by Ellman's method
Assay [2] deals with T1, Acetylcholinesterase. Kind of assay: Mixed-type inhibition of electric eel AChE using acetylthiocholine iodide as substrate by Lineweaver-Burk plot analysis.

Sequence of Cholinesterase (P81908 whole entry): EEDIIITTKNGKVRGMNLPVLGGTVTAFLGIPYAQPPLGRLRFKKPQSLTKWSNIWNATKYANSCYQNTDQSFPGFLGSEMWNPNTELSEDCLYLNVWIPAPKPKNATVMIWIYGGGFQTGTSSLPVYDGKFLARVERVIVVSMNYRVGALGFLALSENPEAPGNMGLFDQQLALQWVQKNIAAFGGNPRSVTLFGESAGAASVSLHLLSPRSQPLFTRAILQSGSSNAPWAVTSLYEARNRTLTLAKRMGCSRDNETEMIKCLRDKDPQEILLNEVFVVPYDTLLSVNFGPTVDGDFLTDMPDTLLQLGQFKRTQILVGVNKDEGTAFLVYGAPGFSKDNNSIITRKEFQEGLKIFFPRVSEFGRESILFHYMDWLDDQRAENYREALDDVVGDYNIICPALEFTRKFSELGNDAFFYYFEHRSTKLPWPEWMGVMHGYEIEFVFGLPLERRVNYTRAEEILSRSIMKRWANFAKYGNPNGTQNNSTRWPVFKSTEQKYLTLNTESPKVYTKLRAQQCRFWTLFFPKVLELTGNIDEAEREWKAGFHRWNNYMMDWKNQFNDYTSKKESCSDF

As to `CCC1c2c(nc3c(c2N)CCCC3)Oc2c1c(=O)oc1ccccc21` (configuration not stated), the negative logarithm of the IC50 (pIC50) is 5.25 at Cholinesterase and 6.58 against Acetylcholinesterase [1].
Turning to `CCCCC1c2c(nc3c(c2N)CCCC3)Oc2c1c(=O)oc1ccccc21` (configuration not stated), the results for the pIC50 at Cholinesterase and against Acetylcholinesterase [1] were 4.64 and 7.24, respectively.
For `Nc1c2c(nc3c1C(c1ccccc1)c1c(c4ccccc4oc1=O)O3)CCCC2` (configuration not stated) the same measures were 5.77 and 7.62.
Consider `Nc1c2c(nc3c1C(c1cccc(F)c1)c1c(c4ccccc4oc1=O)O3)CCCC2` (configuration not stated), for which the negative logarithm of the IC50 (pIC50) was 6.05 against Cholinesterase and 7.17 against Acetylcholinesterase [1].
`Nc1c2c(nc3c1C(c1ccc(F)cc1)c1c(c4ccccc4oc1=O)O3)CCCC2` (configuration not stated): the pKi on Acetylcholinesterase [2] is 7.65. In addition, the pIC50 against Cholinesterase was 4.80; at Acetylcholinesterase [1] it was 8.30.
Turning to `Nc1c2c(nc3c1C(c1ccccc1Cl)c1c(c4ccccc4oc1=O)O3)CCCC2` (configuration not stated), the pIC50 at Cholinesterase was 5.31; against Acetylcholinesterase [1], 7.46.
Taken in the same sequence, the figures for `Nc1c2c(nc3c1C(c1cccc(Cl)c1)c1c(c4ccccc4oc1=O)O3)CCCC2` (configuration not stated) were under 4.52 and 6.54.
For `Nc1c2c(nc3c1C(c1ccc(Cl)cc1)c1c(c4ccccc4oc1=O)O3)CCCC2` (configuration not stated), the results for the pIC50 against Cholinesterase and against Acetylcholinesterase [1] were under 4.52 and 7.03, respectively.
Taken in the same sequence, the figures for `Nc1c2c(nc3c1C(c1ccc(Cl)cc1Cl)c1c(c4ccccc4oc1=O)O3)CCCC2` (configuration not stated) were under 4.52 and 7.30.
Consider `Nc1c2c(nc3c1C(c1cccc([N+](=O)[O-])c1)c1c(c4ccccc4oc1=O)O3)CCCC2` (configuration not stated), for which the pIC50 against Cholinesterase is 4.74; against Acetylcholinesterase [1], 6.85.
For `Cc1ccc(C2c3c(nc4c(c3N)CCCC4)Oc3c2c(=O)oc2ccccc32)cc1` (configuration not stated) the same measures were under 4.52 and 7.85.
For `COc1ccc(C2c3c(nc4c(c3N)CCCC4)Oc3c2c(=O)oc2ccccc32)cc1` (configuration not stated) the same measures were 6.08 and 7.80.
For `COc1ccc(C2c3c(nc4c(c3N)CCCC4)Oc3c2c(=O)oc2ccccc32)cc1OC` (configuration not stated) the same measures were 5.68 and 7.37.
Regarding `COc1cc(C2c3c(nc4c(c3N)CCCC4)Oc3c2c(=O)oc2ccccc32)cc(OC)c1OC` (configuration not stated), the pIC50 against Cholinesterase is 5.49; against Acetylcholinesterase [1] it was 7.16.
Taken in the same sequence, the figures for `Nc1c2c(nc3c1C(c1ccc4c(c1)OCO4)c1c(c4ccccc4oc1=O)O3)CCCC2` (configuration not stated) were 6.24 and 7.89.
On to `Nc1c2c(nc3c1C(c1ccncc1)c1c(c4ccccc4oc1=O)O3)CCCC2` (configuration not stated), for which the pIC50 at Cholinesterase was under 4.52; on Acetylcholinesterase [1], 7.28.
As to `Nc1c2c(nc3c1C(c1cccs1)c1c(c4ccccc4oc1=O)O3)CCCC2` (configuration not stated), the pIC50 was 5.17 at Cholinesterase and 7.08 against Acetylcholinesterase [1].
For `CC1c2c(nc3c(c2N)CCCC3)Oc2c1c(=O)oc1ccccc21` (configuration not stated) the same measures were 5.91 and 6.36.

The term pIC50 denotes −log10 of the IC50, conventionally taken in molar units. The term pKi denotes the negative decadic logarithm of the Ki, by convention in mol/L.
